Test results as given in patent US10219516B2, “Molecules having pesticidal utility, and intermediates, compositions, and processes, related thereto” (priority 2015, dated 2019).

Key:
Assay type in all cases: in vivo
[1] = tested on: Beet Armyworm (Spodoptera exigua, LAPHEG); test: Bioassay on Beet Armyworm (BAW), 128-well diet tray assay; details: Species BAW (Beet Armyworm), read-out: BAW (Biological Results, rating)
How it was run: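 In a 128-well format, eight wells per compound received a surface dose of 50 μg/cm^2 on artificial diet. After drying, each well got one to five second instar larvae, held at 25° C. with 14:10 photoperiod. Mortality percentages after five to seven days were averaged.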

[2] = tested on: Cabbage Looper (Trichoplusia ni, TRIPNI); test: Bioassay on Cabbage Looper (CL), 128-well diet tray assay; details: Trichoplusia ni; Species CL (Cabbage Looper); read-out: CL (Biological Results, rating)
How it was run: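 Using eight wells per molecule, artificial diet was dosed at 50 μg/cm^2 with compound in 90:10 acetone-water and dried before one to five second-instar larvae were added per well. Covered vented trays were kept at 25° C. with 14:10 light-dark for five to seven days, then per-well percent mortality was recorded and averaged.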

[3] = tested on: Yellow Fever Mosquito (Aedes aegypti, AEDSAE); test: Bioassay on Yellow Fever Mosquito (YFM), 96-well plate larval assay; details: Species YFM (Yellow Fever Mosquito)
How it was run: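 Aedes aegypti larvae (about 1 day old) in liver-powder water were added to plates dispensed from DMSO master plates (4000 ppm stock) diluted with 90:10 water/acetone; six replicate plates per master. Lidded plates were held at room temperature for 3 days, then each well was scored for mortality.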

Structure (SMILES) | pest or weed control at 50 µg/cm2 [1] [%] | pest or weed control at 50 µg/cm2 [2] [%] | YFM (Biological Results, rating) [3]
O=C(Nc1ccc(I)cc1F)c1cc(NC(=O)[C@H]2[C@H](c3cc(Cl)cc(Cl)c3)C2(Cl)Cl)ccc1Cl (relative stereo) [F203, trans-2-Chloro-5-(2,2-dichloro-3-(3,5-dichlorophenyl)cyclopropane-1-carboxamido)-N-(2-fluoro-4-iodophenyl)benzamide] | 50 to 100 | 50 to 100 | A (80-100)
O=C(Nc1ccc(I)c(F)c1)c1cc(NC(=O)[C@H]2[C@H](c3cc(Cl)cc(Cl)c3)C2(Cl)Cl)ccc1Cl (relative stereo) [F204, trans-2-Chloro-5-(2,2-dichloro-3-(3,5-dichlorophenyl)cyclopropane-1-carboxamido)-N-(3-fluoro-4-iodophenyl)benzamide] | 50 to 100 | 50 to 100 | A (80-100)
Cc1ccc(NC(=O)c2cc(NC(=O)[C@H]3[C@H](c4cc(Cl)cc(Cl)c4)C3(Cl)Cl)ccc2Cl)cc1N (relative stereo) [F205, trans-N-(3-Amino-4-methylphenyl)-2-chloro-5-(2,2-dichloro-3-(3,5-dichlorophenyl)cyclopropane-1-carboxamido)benzamide] | 50 to 100 | 50 to 100 | B (More than 0-Less than 80)
CNc1ccc(NC(=O)c2cc(NC(=O)[C@H]3[C@H](c4cc(Cl)cc(Cl)c4)C3(Cl)Cl)ccc2Cl)cc1C (relative stereo) [F206, trans-2-Chloro-5-(2,2-dichloro-3-(3,5-dichlorophenyl)cyclopropane-1-carboxamido)-N-(3-methyl-4-(methylamino)phenyl)benzamide] | 50 to 100 | 50 to 100 | A (80-100)
O=C(Nc1ccc(F)cc1)c1cc(NC(=O)[C@H]2[C@H](c3cc(Cl)cc(Cl)c3)C2(Cl)Cl)cc(Cl)c1Cl (relative stereo) [F216, trans-2,3-Dichloro-5-(2,2-dichloro-3-(3,5-dichlorophenyl)cyclopropane-1-carboxamido)-N-(4-fluorophenyl)benzamide] | 50 to 100 | 50 to 100 | B (More than 0-Less than 80)
O=C(Nc1ccc(-n2ccnn2)cc1)c1cc(NC(=O)[C@H]2[C@H](c3cc(Cl)cc(Cl)c3)C2(Cl)Cl)ccc1Cl (relative stereo) [F217, trans-N-(4-(1H-1,2,3-Triazol-1-yl)phenyl)-2-chloro-5-(2,2-dichloro-3-(3,5-dichlorophenyl)cyclopropane-1-carboxamido)benzamide] | 50 to 100 | 50 to 100 | B (More than 0-Less than 80)
O=C(Nc1ncc(F)cn1)c1cc(NC(=O)[C@H]2[C@H](c3cc(Cl)cc(Cl)c3)C2(Cl)Cl)ccc1Cl (relative stereo) [F222, trans-2-Chloro-5-(2,2-dichloro-3-(3,5-dichlorophenyl)cyclopropane-1-carboxamido)-N-(5-fluoropyrimidin-2-yl)benzamide] | 50 to 100 | 50 to 100 | A (80-100)
CNc1ccc(NC(=O)c2cc(NC(=O)[C@H]3[C@H](c4cc(Cl)c(Cl)c(Cl)c4)C3(Cl)Cl)ccc2Cl)c(C)c1 (relative stereo) [F223, trans-2-Chloro-5-(2,2-dichloro-3-(3,4,5-trichlorophenyl)cyclopropane-1-carboxamido)-N-(2-methyl-4-(methylamino)phenyl)benzamide] | 50 to 100 | 50 to 100 | A (80-100)
CNc1ccc(NC(=O)c2cc(NC(=O)[C@H]3[C@H](c4ccc(F)c(Cl)c4)C3(Cl)Cl)ccc2Cl)c(C)c1 (relative stereo) [F224, trans-2-Chloro-5-(2,2-dichloro-3-(3-chloro-4-fluorophenyl)cyclopropane-1-carboxamido)-N-(2-methyl-4-(methylamino)phenyl)benzamide] | 50 to 100 | 50 to 100 | A (80-100)
CNc1ccc(N(C)C(=O)c2cc(NC(=O)[C@H]3[C@H](c4cc(Cl)c(Cl)c(Cl)c4)C3(Cl)Cl)ccc2Cl)c(C)c1 (relative stereo) [F226, trans-2-Chloro-5-(2,2-dichloro-3-(3,4,5-trichlorophenyl)cyclopropane-1-carboxamido)-N-methyl-N-(2-methyl-4-(methylamino)phenyl)benzamide] | 50 to 100 | 50 to 100 | A (80-100)
Cc1cc(N)ccc1NC(=O)c1cc(NC(=O)[C@H]2[C@H](c3cc(Cl)c(Cl)c(Cl)c3)C2(Cl)Cl)ccc1Cl (relative stereo) [F227, trans-N-(4-Amino-2-methylphenyl)-2-chloro-5-(2,2-dichloro-3-(3,4,5-trichlorophenyl)cyclopropane-1-carboxamido)benzamide] | 50 to 100 | 50 to 100 | A (80-100)
Cc1cc(N)ccc1NC(=O)c1cc(NC(=O)[C@H]2[C@H](c3ccc(F)c(Cl)c3)C2(Cl)Cl)ccc1Cl (relative stereo) [F228, trans-N-(4-Amino-2-methylphenyl)-2-chloro-5-(2,2-dichloro-3-(3-chloro-4-fluorophenyl)cyclopropane-1-carboxamido)benzamide] | 50 to 100 | 50 to 100 | A (80-100)
N#Cc1cc([N+](=O)[O-])ccc1NC(=O)c1cc(NC(=O)[C@H]2[C@H](c3cc(Cl)cc(Cl)c3)C2(Cl)Cl)ccc1Cl (relative stereo) [F229, trans-2-chloro-N-(2-cyano-4-nitrophenyl)-5-(2,2-dichloro-3-(3,5-dichlorophenyl)cyclopropane-1-carboxamido)benzamide] | 50 to 100 | 50 to 100 | A (80-100)
Cc1ccc(C#N)c(NC(=O)c2cc(NC(=O)[C@H]3[C@H](c4cc(Cl)cc(Cl)c4)C3(Cl)Cl)ccc2Cl)c1 (relative stereo) [F230, 2-Chloro-N-(2-cyano-5-methylphenyl)-5-(trans-2,2-dichloro-3-(3,5-dichlorophenyl)cyclopropane-1-carboxamido)benzamide] | 50 to 100 | 50 to 100 | A (80-100)
Cc1ccc(NC(=O)c2cc(NC(=O)[C@H]3[C@H](c4cc(Cl)cc(Cl)c4)C3(Cl)Cl)ccc2Cl)c([N+](=O)[O-])c1 (relative stereo) [F231, 2-Chloro-5-(trans-2,2-dichloro-3-(3,5-dichlorophenyl)cyclopropane-1-carboxamido)-N-(4-methyl-2-nitrophenyl)benzamide] | 50 to 100 | 50 to 100 | A (80-100)
N#Cc1cc(C(F)(F)F)ccc1NC(=O)c1cc(NC(=O)[C@H]2[C@H](c3cc(Cl)cc(Cl)c3)C2(Cl)Cl)ccc1Cl (relative stereo) [F232, 2-Chloro-N-(2-cyano-4-(trifluoromethyl)phenyl)-5-(trans-2,2-dichloro-3-(3,5-dichlorophenyl)cyclopropane-1-carboxamido)benzamide] | 50 to 100 | 50 to 100 | A (80-100)
N#Cc1ccc(NC(=O)c2cc(NC(=O)[C@H]3[C@H](c4cc(Cl)cc(Cl)c4)C3(Cl)Cl)ccc2Cl)cc1F (relative stereo) [F233, 2-Chloro-N-(4-cyano-3-fluorophenyl)-5-(trans-2,2-dichloro-3-(3,5-dichlorophenyl)cyclopropane-1-carboxamido)benzamide] | 50 to 100 | 50 to 100 | A (80-100)
COc1cc(NC(=O)c2cc(NC(=O)[C@H]3[C@H](c4cc(Cl)cc(Cl)c4)C3(Cl)Cl)ccc2Cl)ccc1C#N (relative stereo) [F234, 2-Chloro-N-(4-cyano-3-methoxyphenyl)-5-(trans-2,2-dichloro-3-(3,5-dichlorophenyl)cyclopropane-1-carboxamido)benzamide] | 50 to 100 | 50 to 100 | A (80-100)
N#Cc1ccc(NC(=O)c2cc(NC(=O)[C@H]3[C@H](c4cc(Cl)cc(Cl)c4)C3(Cl)Cl)ccc2Cl)cc1C(F)(F)F (relative stereo) [F235, 2-Chloro-N-(4-cyano-3-(trifluoromethyl)phenyl)-5-(trans-2,2-dichloro-3-(3,5-dichlorophenyl)cyclopropane-1-carboxamido)benzamide] | 50 to 100 | 50 to 100 | A (80-100)
N#Cc1cc(N)ccc1NC(=O)c1cc(NC(=O)[C@H]2[C@H](c3cc(Cl)cc(Cl)c3)C2(Cl)Cl)ccc1Cl (relative stereo) [F236, trans-N-(4-amino-2-cyanophenyl)-2-chloro-5-(2,2-dichloro-3-(3,5-dichlorophenyl)cyclopropane-1-carboxamido)benzamide] | 50 to 100 | 50 to 100 | A (80-100)
